Test results: PubChem BioAssay (NCI)
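Briefly, cells in 96-well plates were exposed to five compound concentrations for 48 h, and endpoints were estimated by linear interpolation. TGI marks complete inhibition of growth.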

How the values were obtained:
Assay in all cases: NCI anticancer screen, dose series, 48 h
786-0 renal = system: 786-0 renal
A549 NSCLC = system: A549 NSCLC
ACHN renal = system: ACHN renal
CAKI-1 renal = system: CAKI-1 renal
CCRF-CEM leukemia = system: CCRF-CEM leukemia
COLO 205 colon = system: COLO 205 colon
DLD-1 colon = system: DLD-1 colon
DMS 273 small cell lung = system: DMS 273 small cell lung
EKVX NSCLC = system: EKVX NSCLC
HCC-2998 colon = system: HCC-2998 colon
HCT-15 colon = system: HCT-15 colon
HL-60(TB) leukemia = system: HL-60(TB) leukemia
HOP-18 NSCLC = system: HOP-18 NSCLC
HOP-62 NSCLC = system: HOP-62 NSCLC
HOP-92 NSCLC = system: HOP-92 NSCLC
HT29 colon = system: HT29 colon
K-562 leukemia = system: K-562 leukemia
KM12 colon = system: KM12 colon
KM20L2 colon = system: KM20L2 colon
LOX IMVI melanoma = system: LOX IMVI melanoma
M14 melanoma = system: M14 melanoma
MALME-3M melanoma = system: MALME-3M melanoma
MOLT-4 leukemia = system: MOLT-4 leukemia
NCI-H226 lung = system: NCI-H226 lung
NCI-H23 lung = system: NCI-H23 lung
NCI-H460 lung = system: NCI-H460 lung
NCI-H522 lung = system: NCI-H522 lung
OVCAR-3 ovarian = system: OVCAR-3 ovarian
OVCAR-4 ovarian = system: OVCAR-4 ovarian
OVCAR-5 ovarian = system: OVCAR-5 ovarian
OVCAR-8 ovarian = system: OVCAR-8 ovarian
RPMI-8226 leukemia = system: RPMI-8226 leukemia
RXF 393 renal = system: RXF 393 renal
SF-268 CNS = system: SF-268 CNS
SF-295 CNS = system: SF-295 CNS
SK-MEL-2 melanoma = system: SK-MEL-2 melanoma
SK-MEL-28 melanoma = system: SK-MEL-28 melanoma
SK-MEL-5 melanoma = system: SK-MEL-5 melanoma
SN12C renal = system: SN12C renal
SNB-19 CNS = system: SNB-19 CNS
SNB-75 CNS = system: SNB-75 CNS
SNB-78 CNS = system: SNB-78 CNS
SW-620 colon = system: SW-620 colon
TK-10 renal = system: TK-10 renal
U251 CNS = system: U251 CNS
UACC-257 melanoma = system: UACC-257 melanoma
UO-31 renal = system: UO-31 renal
XF 498 CNS = system: XF 498 CNS
A498 renal = system: A498 renal
DMS 114 small cell lung = system: DMS 114 small cell lung
IGROV1 ovarian = system: IGROV1 ovarian
LXFL 529 NSCLC = system: LXFL 529 NSCLC
M19-MEL melanoma = system: M19-MEL melanoma
SF-539 CNS = system: SF-539 CNS
SK-OV-3 ovarian = system: SK-OV-3 ovarian
SR leukemia = system: SR leukemia
UACC-62 melanoma = system: UACC-62 melanoma

Measured: TGI

CCCC(=O)CC(C)C(=O)C(=O)NC12CC3CC(CC(C3)C1)C2 (centres undefined)
not listed: A498 renal | DMS 114 small cell lung | IGROV1 ovarian | LXFL 529 NSCLC | M19-MEL melanoma | SF-539 CNS | SK-OV-3 ovarian | SR leukemia | UACC-62 melanoma
> 100 µM: all other assays above

CC(=O)OC1COC(N2CCc3cc([N+](=O)[O-])ccc32)C(OC(C)=O)C1OC(C)=O (centres undefined)
not listed: HCC-2998 colon | HL-60(TB) leukemia | HOP-18 NSCLC | MALME-3M melanoma | OVCAR-5 ovarian | SN12C renal
> 100 µM: all other assays above
